Reference: PMC3504148, “Enteropeptidase: A Gene Associated with a Starvation Human Phenotype and a Novel Target for Obesity Treatment” (PLoS ONE, 2012)

Assays:
[1] = system: mouse model of diet-induced obesity (DIO); test: Long term effect in mice fed with DIO regimen; format: in vivo, male Swiss mice
Protocol: Figure 3 Effect of OBE-2008 administered before night phase on food consumption (left) and body weight (right) in mice. Red = control; dark green = dose of 10 mg/kg/day; light green = dose of 25 mg/kg/day. Number of mice per group n = 10. Statistical comparison between control and treated group were conducted by Dunnett’s tests. Asterisks (*) indicate p values versus control. A p value of<0.05 was considered to show a statistically significant difference.
The anti-obesity effect of OBE lead in a diet induced obesity model (45% kcal from lipids and 20% from proteins, reference 824053 from Special Diet Services, UK) was evaluated following daily oral administration in mice for 63 days. The study involved 3 groups of 10 male Swiss mice; Group 1: water; Group 2: OBE lead at 10 mg/kg/day; Group 3: OBE lead at 25 mg/kg/day. Animal were weighted daily. Food consumption was measured daily for each animal, except during fasted periods. For all groups, the food was given ad libitum. Body weights are given as means ± SEM (Standard Error of the Mean). The effects of test items on body weight and food consumption were expressed as absolute values and compared with those of the vehicle using multiple comparison procedure with a Dunnett’s test in case of significance (P≤0.05).

[2] = Pharmacokinetics in mice, IV and oral; format: in vivo, male Swiss mice
Protocol: Figure 5 Pharmacokinetics of OBE-2008 in mice following intravenous (1 mg/kg, dark blue) and oral (10 mg/kg, light blue) dosing. Number of mice per group n = 3.
This study aimed to determine the fate of OBE lead in mice after intravenous (IV; 1 mg/kg) and oral (PO; 10 mg/kg) administration. Blood was taken from two animals at each sampling time from T = 0 to T = 6 h after IV administration, and from T = 0 to T = 24 h after oral administration. Samples were analyzed for OBE lead using LC/MS/MS methodology. For each IV and PO routes, three male Swiss mice aged 10-weeks were included in the experiment. The animals OBE IV-1, OBE IV-2 and OBE IV-3 were treated at T = 0 with 1 mg/kg of OBE lead using 2 mL/kg. The injection was performed in the jugular vein under isoflurane anaesthesia. The animals OBE PO-1, OBE PO-2 and OBE PO-3 were treated at T = 0 with 10 mg/kg of OBE lead using 5 mL/kg. The solution to be administered was delivered by gavage, using a gastric cannula. About 50–75 µL of blood were sampled from the retro orbital sinus. The blood was immediately centrifuged at 3500 rpm (+4°C) for 5 minutes. Protein precipitation was conducted by adding a volume of 400 µL of acetonitrile to 10 µL of plasma in Teflon vials. After centrifugation, an aliquot of the supernatant (+4°C auto-sampler; injected volume = 10 µL) was immediately analyzed by LC/MS/MS (column: HILIC Silica 5 µM 2.1×150 mm; isocratic elution using an ACN/pH3 buffer (70/30, V/V) eluant containing 1% formic acid; flow rate = 0.25 mL/min. The MS system operated in the ESI mode, and the ionization source was heated at 350°C). Chromatographic peaks areas were than calculated and plotted against time.

[3] = system: fasted mice given radiolabeled proteins; test: Effect on 14C-protein absorption in mouse; format: in vivo, male Swiss mice; conditions: 240 minutes, not statistically significant
Protocol: (§1) Figure 4 The mechanism-based efficacy of OBE-2008 on enteropeptidase was evaluated based on triglycerides (left) and amino acids (right) absorption. Red = control; dark green = dose of 5 mg/kg; light green = dose of 50 mg/kg. Number of mice per group n = 3 (right) for amino acids, and n = 8 (left) for triglycerides. Statistical comparison between control and treated group were conducted by two-sided unpaired Student’s tests. Asterisks (*) indicate p values versus control. A p value of<0.05 was considered to show a statistically significant difference.
The aim of the study was to evaluate the duration of effect of OBE lead on absorption of ^14C-proteins after oral administration in mice. Fifteen male Swiss mice were divided in 3 groups; Group 1: water and ^14C-proteins; Group 2: OBE lead 5 mg/Kg and ^14C-proteins; Group 3: OBE lead 50 mg/Kg and ^14C-proteins. A preparation containing 5 ml of Clinoleic 20 (Baxter Ref DDB9500) with 1 g of glucose (Sigma; ref:G8270) and 1 g of casein (Sigma; ref: C3400) was prepared. […] About 4 ml Pico-fluor 40 was added and after shaking, the total radioactivity contained within the different samples was determined by liquid scintillation using a Packard 1900 CA spectrometer equipped with an external standard system. […]

[4] = system: fasted mice given oral fat overload; test: Effect on triglycerides absorption in mouse; format: in vivo; conditions: for decrease of fatty acids absorption (plasma triglycerides AUC): up to 6 hours, p<0.05
Protocol: as §1
The aim of the study was to evaluate the duration of effect of OBE lead on triglycerides absorption in mice after oral administration. The study involved 3 groups of 8 male animals each. Group 1: water; Group 2: OBE lead at 5 mg/kg; Group 3: OBE lead at 50 mg/kg. On the day of the test, all animals were given an oral fat overload. The preparation to be administered (OBE lead or its vehicle) was diluted at 1/100 in 10 mL of clinoleic acid 20. In all animals, about 60 µL were sampled via retro orbital sinus at time points: before dosing, 1, 2, 3, 5 and 6 hours post-dosing. The blood samples were prepared within 30 minutes of sampling by centrifugation for 10 minutes at 1500 g. All plasma samples were dosed for triglycerides. The effects of test items on triglycerides absorption were conducted by two-side unpaired Student’s test. A p value of<0.05 was considered to show a statistically significant difference.

detectability in plasma ([2]; intravenous 1 mg/kg): undetectable after 2 hours
plasma half-life ([2]; intravenous 1 mg/kg): minutes
calculated bioavailability ([2]; oral 10 mg/kg vs intravenous 1 mg/kg): 2–3%
Structure (SMILES): CC(=O)N[C@@H](C)C(=O)N[C@@H](Cc1ccccc1)C(=O)N[C@@H](CCCCN)B1O[C@@H]2C[C@@H]3C[C@@H](C3(C)C)[C@]2(C)O1 [OBE-2008]
side effects such as steatorrhea or diarrhea ([1]; long-term oral treatment): no side effects
reduction of weight gain relative to control group ([1]; oral 10 mg/kg daily, up to 9 weeks): 6%
reduction of weight gain relative to control group ([1]; oral 25 mg/kg daily, up to 9 weeks): 10%
effect on food consumption ([1]; oral daily 10 and 25 mg/kg, up to 9 weeks, food ad libitum): no effect
decrease of total protein absorption (AUC) ([3]; 5 mg/kg oral): 17%
decrease of total protein absorption (AUC) ([3]; 50 mg/kg oral): 22%
maximum level of triglycerides in plasma after 1 hour vs control ([4]; 5 mg/kg and 50 mg/kg oral): substantially lower than in the control group
decrease of fatty acids absorption (plasma triglycerides AUC) ([4]; 5 mg/kg oral): 33%
decrease of fatty acids absorption (plasma triglycerides AUC) ([4]; 50 mg/kg oral): 32%
